Measurements reported in patent publication US20250326744A1, “PIPERAZINE DERIVATIVE OR SALT THEREOF, AND PHARMACEUTICAL COMPOSITION” (priority 2022, published 2025).
Structures can show the parent of a compound that is named as a salt.

Columns and labels:
mexB (EC) strain = test: Efflux ability inhibition effect on drug efflux pump MexB (Test Examples 1 and 3): proliferation (OD595) of mexB (EC) strain with EM or LVFX at 1/4 MIC, EC75; format: cell-based, Escherichia coli; conditions: Table 51, Test Example 1, 16 to 20 hours culture, OD595; for EC75, mexB (EC) strain, EM: combined with EM at 1/4 MIC; for EC75, mexB (EC) strain, LVFX: combined with LVFX at 1/4 MIC
Method: (§1) The efflux ability inhibition effect of the test compound on the drug efflux pump was evaluated using the bacterial proliferative ability in the presence of EM or LVFX as an index.
(§2) EM is a macrolide antibacterial agent and is a drug that is discharged outside the bacteria by MexB and MexY LVFX is a quinolone antibacterial agent and is a drug that is discharged outside the bacteria by MexB and MexY In a case where the test compound has an efflux ability inhibitory ability against the drug efflux pump, the proliferation of bacteria is suppressed by the combined use of EM or LVFX and the test compound, as compared with the case where EM or LVFX is used alone.
(§3) A mutant strain (hereinafter, referred to as an “mexB (EC) strain”) obtained by transferring the genes of the main multidrug efflux system MexAB-OprM of Pseudomonas aeruginosa described in Nature, 2013, Vol. 500, pp. 102 to 106 as a plasmid into Escherichia coli strains in which the acrB and tolC genes of the multidrug efflux system AcrAB-TolC were deleted as described in Journal of Infection and Chemotherapy 2008, Vol. 14, pp. 23 to 29, and a gene transfer strain (hereinafter, referred to as an “mexY (EC) strain”) of another main multidrug efflux system MexXY-OprM of Pseudomonas aeruginosa were used for the evaluation of test compounds.
(§4) In the mexB (EC) strain, an expression level of MexB of the drug efflux pump is accelerated, and in the mexY (EC) strain, an expression level of MexY of the drug efflux pump is accelerated.
(§5) For culturing each Escherichia coli strain, a 96-well plate (amount of culture medium per well: 100 μL) was used and Luria-Bertani broth (LB) culture medium was used. The inoculation amount of the bacteria was set to 10^4 to 5 CFU/well.
(§6) The mexB (EC) strain and the mexY (EC) strain were cultured for 16 to 20 hours in a culture medium to which EM or LVFX and test compounds at various concentrations (0 to 800 μM) were added, and the proliferation of the bacterial strains was evaluated by optical turbidity at 595 nm (OD595). The concentration of the antibacterial agents (EM and LVFX) in the culture medium were each set to ¼ of the minimum inhibitory concentration (MIC) (hereinafter, referred to as ¼ MIC) of the single antibacterial agent.
(§7) The proliferation of bacteria in a case where the antibacterial agent was added at the concentration of ¼ MIC in a case where the test compound was not added was measured, and compared with the proliferation of bacteria in a case where the test compound was contained, and the lowest concentration of the test compound at which the proliferation was inhibited by 75% or more was defined as the drug efflux pump inhibitory ability of the test compound as 75% inhibitory effect concentration (EC75).
(§8) The drug efflux pump inhibitory ability of each test compound in a case of being used in combination with the antibacterial agent against the mexB (EC) strain and the mexY (EC) strain was evaluated as follows according to the value of EC75. • S: EC75≤[…] • A: 12.5 μM<EC75≤25 μM • B: 25 μM<EC75≤100 μM • C: […]
(§9) In the same manner as in Test Example 1, the efflux ability inhibition effect of the test compound on the drug efflux pump was evaluated using the bacterial proliferation ability in the presence of EM or LVFX as an index.

mexY (EC) strain = test: Efflux ability inhibition effect on drug efflux pump MexY (Test Examples 1 and 3): proliferation (OD595) of mexY (EC) strain with EM or LVFX at 1/4 MIC, EC75; format: cell-based, Escherichia coli; conditions: Table 53, Test Example 3, same manner as Test Example 1; for EC75, mexY (EC) strain, LVFX: combined with LVFX at 1/4 MIC
Method: as §1, §2, §3, §4, §5, §6, §7, §8, §9

mexB (PA) strain = test: Combinational effect with antibacterial agent against Pseudomonas aeruginosa (Test Examples 2 and 4): mexB (PA) strain with LVFX, TC or AZT at 1/4 MIC, EC99; format: cell-based; conditions: mexB (PA) strain, Test Example 4; for EC99, combinational effect with AZT, mexB (PA): combined with AZT at 1/4 MIC; for EC99, combinational effect with LVFX, mexB (PA): combined with LVFX at 1/4 MIC; for EC99, combinational effect with TC, mexB (PA): combined with TC at 1/4 MIC
Method in brief: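 P. aeruginosa mexB (PA) strain, lacking MexCD-OprJ, MexEF-OprN and MexXY and overexpressing MexAB-OprM, grown 16–20 h in CAMHB (10^4–5 CFU/well) with LVFX, TC or AZT at ¼ MIC plus test compound at 0–800 μM. Growth read as OD595; EC99 is the lowest compound concentration giving ≥99% growth inhibition.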

S-3769 strain = test: Combinational effect with antibacterial agent against Pseudomonas aeruginosa (Test Examples 2 and 4): S-3769 strain with AMK or GM at 1/4 MIC, EC99; format: cell-based; conditions: S-3769 strain, Test Example 4; for EC99, combinational effect with AMK, S-3769 strain: combined with AMK at 1/4 MIC; for EC99, combinational effect with GM, S-3769 strain: combined with GM at 1/4 MIC
Method in brief: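 P. aeruginosa S-3769 (clinical isolate, MexY overexpressed) grown 16–20 h in CAMHB, 10^4 to 5 CFU/well, with AMK or GM at ¼ MIC plus test compound 0–800 μM. Growth read as OD595; EC99 is the lowest compound concentration giving ≥99% growth inhibition.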

SMILES | EC75, mexB (EC) strain, EM (mexB (EC) strain) | EC75, mexB (EC) strain, LVFX (mexB (EC) strain) | also measured
COc1ccccc1CN1CCN(C(=O)CC2CCN(CCc3ccccc3)CC2)CC1 [Example 304, hydrochloride of 1-(4-(2-methoxybenzyl)piperazin-1-yl)-2-(1-phenethylpiperidin-4-yl)ethan-1-one] | A (12.5 μM<EC75≤25 μM) | B (25 μM<EC75≤100 μM) | –
N#Cc1ccccc1CN1CCN(C(=O)CN2CCN(CCc3ccccc3)CC2)CC1 [Example 234, Hydrochloride of 2-((4-(2-(4-phenethylpiperazin-1-yl)acetyl)piperazin-1-yl)methyl)benzonitrile] | – | B (25 μM<EC75≤100 μM) | –
O=C(CN1CCN(CCc2ccccc2)CC1)N1CCN(Cc2sccc2Cl)CC1 [Example 251, Hydrochloride of 1-(4-((3-chlorothiophen-2-yl)methyl)piperazin-1-yl)-2-(4-phenethylpiperazin-1-yl)ethan-1-one] | A (12.5 μM<EC75≤25 μM) | B (25 μM<EC75≤100 μM) | –
CCOc1cccc(F)c1CN1CCN(C(=O)[C@H](N)C2CCN(CCc3cn(-c4ccccc4F)c4ccccc34)CC2)CC1 [Example 157, Hydrobromide of (R)-2-amino-1-(4-(2-ethoxy-6-fluorobenzyl)piperazin-1-yl)-2-(1-(2-(1-(2-fluorophenyl)-1H-indol-3-yl)ethyl)piperidin-4-yl)ethan-1-one] | A (12.5 μM<EC75≤25 μM) | A (12.5 μM<EC75≤25 μM) | –
N[C@@H](C(=O)N1CCN(Cc2cccc3cc[nH]c23)CC1)C1CCN(CCc2cc(Cl)ccc2-c2ccccc2)CC1 [Example 40, Hydrobromide of (R)-1-(4-((1H-indol-7-yl)methyl)piperazin-1-yl)-2-amino-2-(1-(2-(4-chloro-[1,1′-biphenyl]-2-yl)ethyl)piperidin-4-yl) ethan-1-one] | – | B (25 μM<EC75≤100 μM) | –
COc1cccc(OCCN)c1CN1CCN(C(=O)CN2CCN(CCc3ccccc3)CC2)CC1 [Example 266, hydrochloride of 1-(4-(2-(2-aminoethoxy)-6-methoxybenzyl)piperazin-1-yl)-2-(4-phenethylpiperazin-1-yl)ethan-1-one] | – | B (25 μM<EC75≤100 μM) | –
COc1ccccc1CN1CCN(C(=O)CN2CCN(CCc3ccccn3)CC2)CC1 [Example 288, 1-(4-(2-Methoxybenzyl)piperazin-1-yl)-2-(4-(2-(pyridin-2-yl)ethyl)piperazin-1-yl)ethan-1-one and hydrochloride thereof] | B (25 μM<EC75≤100 μM) | B (25 μM<EC75≤100 μM) | –
O=C(CN1CCN(CCc2ccccc2)CC1)N1CCN(Cc2ccccc2[N+](=O)[O-])CC1 [Example 235, Hydrochloride of 1-(4-(2-nitrobenzyl)piperazin-1-yl)-2-(4-phenethylpiperazin-1-yl) ethan-1-one] | B (25 μM<EC75≤100 μM) | B (25 μM<EC75≤100 μM) | –
COc1ccccc1CN1CCN(C(=O)CN2CCC(CCc3ccccc3)(NC(C)=O)CC2)CC1 [Example 415, hydrochloride of N-(1-(2-(4-(2-methoxybenzyl)piperazin-1-yl)-2-oxoethyl)-4-phenethylpiperidin-4-yl)acetamide] | – | A (12.5 μM<EC75≤25 μM) | –
O=C(CN1CCN(CCc2ccccc2)CC1)N1CCN(Cc2ccccc2F)CC1 [Example 259, hydrochloride of 1-(4-(2-fluorobenzyl)piperazin-1-yl)-2-(4-phenethylpiperazin-1-yl)ethan-1-one] | A (12.5 μM<EC75≤25 μM) | – | –
COCc1ccccc1CN1CCN(C(=O)CN2CCN(CCc3ccccc3)CC2)CC1 [Example 263, Hydrochloride of 1-(4-(2-(methoxymethyl)benzyl)piperazin-1-yl)-2-(4-phenethylpiperazin-1-yl)ethan-1-one] | A (12.5 μM<EC75≤25 μM) | A (12.5 μM<EC75≤25 μM) | –
CCOc1cccc(F)c1CN1CCN(C(=O)[C@H](N)C2CCN(CCc3cc(Cl)ccc3-c3cccc(F)c3)CC2)CC1 [Example 60, Hydrobromide of (R)-2-amino-2-(1-(2-(4-chloro-3′-fluoro-[1,1′-biphenyl]-2-yl)ethyl)piperidin-4-yl)-1-(4-(2-ethoxy-6-fluorobenzyl)piperazin-1-yl)ethan-1-one] | A (12.5 μM<EC75≤25 μM) | – | –
CCOc1cccc(F)c1CN1CCN(C(=O)[C@H](N)C2CCN(CCc3ccccc3C(=O)OC)CC2)CC1 [Example 129, Hydrochloride of Methyl (R)-2-(2-(4-(1-amino-2-(4-(2-ethoxy-6-fluorobenzyl)piperazin-1-yl)-2-oxoethyl)piperidin-1-yl)ethyl)benzoate] | A (12.5 μM<EC75≤25 μM) | – | –
CCOc1cccc(F)c1CN1CCN(C(=O)[C@H](N)C2CCN(CCc3cc(Cl)ccc3-c3ccnn3C)CC2)CC1 [Example 503, Hydrobromide of (R)-2-amino-2-(1-(5-chloro-2-(1-methyl-1H-pyrazol-5-yl)phenethyl)piperidin-4-yl)-1-(4-(2-ethoxy-6-fluorobenzyl)piperazin-1-yl)ethan-1-one] | – | – | EC75, mexY (EC) strain, EM (mexY (EC) strain; combined with EM at 1/4 MIC): A (12.5 μM<EC75≤25 μM); EC99, combinational effect with AZT, mexB (PA) (mexB (PA) strain): C (100 μM<EC99); EC99, combinational effect with LVFX, mexB (PA) (mexB (PA) strain): C (100 μM<EC99); EC99, combinational effect with TC, mexB (PA) (mexB (PA) strain): C (100 μM<EC99); EC99, combinational effect with AMK, S-3769 strain (S-3769 strain): B (25 μM<EC99≤100 μM); EC99, combinational effect with GM, S-3769 strain (S-3769 strain): B (25 μM<EC99≤100 μM)
CCOc1cccc(F)c1CN1CCN(C(=O)[C@H](N)C2CCN(CCc3cc(Cl)ccc3-c3c[nH]ccc3=O)CC2)CC1 [Example 577, Hydrochloride of (R)-3-(2-(2-(4-(1-amino-2-(4-(2-ethoxy-6-fluorobenzyl)piperazin-1-yl)-2-oxoethyl)piperidin-1-yl)ethyl)-4-chlorophenyl)pyridine-4(1H)-one] | – | – | EC75, mexY (EC) strain, LVFX (mexY (EC) strain): A (12.5 μM<EC75≤25 μM); EC99, combinational effect with AZT, mexB (PA) (mexB (PA) strain): B (25 μM<EC99≤100 μM); EC99, combinational effect with LVFX, mexB (PA) (mexB (PA) strain): B (25 μM<EC99≤100 μM); EC99, combinational effect with TC, mexB (PA) (mexB (PA) strain): B (25 μM<EC99≤100 μM); EC99, combinational effect with AMK, S-3769 strain (S-3769 strain): C (100 μM<EC99); EC99, combinational effect with GM, S-3769 strain (S-3769 strain): C (100 μM<EC99)
CSc1ccc(CN2CCN(C(=O)[C@H](N)C3CCN(CCc4cc(Cl)ccc4-c4ccccc4)CC3)CC2)s1 [Example 523, Hydrobromide of (R)-2-amino-2-(1-(2-(4-chloro-[1,1-biphenyl]-2-yl)ethyl)piperidin-4-yl)-1-(4-((5-(methylthio)thiophen-2-yl)methyl)piperazin-1-yl)ethan-1-one] | – | – | EC75, mexY (EC) strain, LVFX (mexY (EC) strain): A (12.5 μM<EC75≤25 μM); EC99, combinational effect with AZT, mexB (PA) (mexB (PA) strain): B (25 μM<EC99≤100 μM); EC99, combinational effect with LVFX, mexB (PA) (mexB (PA) strain): B (25 μM<EC99≤100 μM); EC99, combinational effect with TC, mexB (PA) (mexB (PA) strain): B (25 μM<EC99≤100 μM); EC99, combinational effect with AMK, S-3769 strain (S-3769 strain): B (25 μM<EC99≤100 μM); EC99, combinational effect with GM, S-3769 strain (S-3769 strain): B (25 μM<EC99≤100 μM)
